Measured values taken from patent publication US20190127366A1 (LifeSci Pharmaceuticals, Inc., priority 2015, published 2019).

molecular target: T1, human complement factor D (Homo sapiens, UniProt P00746); assay: In vitro enzyme inhibition (Z-Lys-SBzl/DTNB absorbance assay); type: biochemical; conditions: Complement Factor D (R&D Systems), substrate Z-Lys-SBzl, A405 nm; read-out: CFD IC50
T1 construct: purchased R&D Systems 1824-SE
Method: The ability of the compounds disclosed herein to inhibit human complement factor D inhibitory activity was quantified according to the 12-step protocol provided below. • 1. Prepare assay buffer: 50 mM Tris/HCl, pH 7.5, 1 M NaCl. • 2. Dilute 10 mM Complement Factor D inhibitor Nafamostat Mesilate (Selleckchem, Catalog #S1386) solution from 10000 μM to 9.77 μM in 100% DMSO, 8 concentrations. Then dilute the serial concentrations of Nafamostat Mesilate 20-fold in assay buffer. • 3. Add 10 μl diluted Nafamostat Mesilate duplicated into each of the inhibitor control well of a 96-well plate (Corning, Catalog #3599). Final concentrations were 50 μM, 25 μM, 12.5 μM, 6.25 μM, 3.125 μM, 0.781 μM, 0.195 μM and 0.049 μM. 0.5% DMSO was in each well finally. • 4. Dilute 20 mM test compounds from 10000 μM to […] in 100% DMSO, 6-fold dilution, 8 concentrations. Then dilute the serial concentrations of test compounds 20-fold in assay buffer. • 5. Add 10 μl diluted test compounds duplicated into the 96-well plate. Final concentrations were 50 μM, 8.33 μM, 1.39 μM, 0.23 μM, 0.0386 μM, 0.0064 μM, 0.0011 μM and 0.0002 μM. 0.5% DMSO was in each well finally. • 6. Dilute 20 mM substrate Z-Lys-SBzl (Bachem, Cat #M-1300) to 200 μM in assay buffer with 200 μM DTNB(Sigma, Catalog #D8130). • 7. Dilute 738 ng/μL Complement Factor D (R&D Systems, Catalog #1824-SE) to 6.25 ng/μL in assay buffer. Add 40 μl diluted Complement Factor D in the 96-well plate. • 8. Positive control well contains Complement Factor D without test compound. Negative control well contains neither Complement Factor D nor test compound. Using assay buffer, bring the total volume of all controls to 50 μl. • 9. Pre-incubate the plate for 5 min at room temperature. • 10. Add 50 μl of diluted substrate/DTNB mixture into each well. Mix the reagents completely by shaking the plate gently for 30 sec. • 11. For kinetic reading: Immediately start measuring absorbance (A405 nm) continuously and record data every 30sec for 60 min. • 12. Data analysis • Inhibition activity of compound was evaluated by IC50. IC50 was calculated according the dose-response curve of compound fitted using GraphPadPrism with “log(inhibitor)-response (variable slope)” equation. • % inhibition was calculated by using following equation:
[formula] • Mean(NC): The average value of the negative control wells' A405 nm values. • Mean(PC): The average value of the positive control wells' A405 nm values.
The ability of the compounds in Table 2 to inhibit human complement factor D inhibitory activity was determined.

T1 sequence (P00746 26-253): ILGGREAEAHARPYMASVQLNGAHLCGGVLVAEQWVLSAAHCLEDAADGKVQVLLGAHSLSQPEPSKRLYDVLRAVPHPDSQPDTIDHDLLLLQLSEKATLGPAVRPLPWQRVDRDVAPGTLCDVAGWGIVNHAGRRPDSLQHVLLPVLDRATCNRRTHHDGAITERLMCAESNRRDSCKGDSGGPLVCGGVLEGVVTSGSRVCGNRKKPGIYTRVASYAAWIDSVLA

`NC(=O)c1nn(CC(=O)N2[C@H]3CC[C@H](CC3)[C@@H]2C(=O)Nc2cccc(Cl)n2)c2ccccc12` [Example 155, (1S,3R,4S)-2-(2-(3-carbamoyl-1H-indazol-1-yl)acetyl)-N-(6-chloropyridin-2-yl)-2-azabicyclo[2.2.2]octane-3-carboxamide] and `NC(=O)c1nn(CC(=O)N2[C@@H]3CC[C@@H](C3)[C@H]2C(=O)Nc2cccc(C3CC3)n2)c2ccccc12` [Example 3, 1-(2-((1R,3S,4S)-3-((6-cyclopropylpyridin-2-yl)carbamoyl)-2-azabicyclo[2.2.1]heptan-2-yl)-2-oxoethyl)-1H-indazole-3-carboxamide] fall in the same range of IC50: 1000 to 10000 nM for the first, 1000 to 10000 nM for the second.

First: NC(=O)c1nn(CC(=O)N2[C@@H]3CC[C@@H](C3)[C@H]2C(=O)NCc2c(Br)ccc(Cl)c2F)c2ccccc12 [Example 115, 1-(2-((1R,3S,4S)-3-((6-bromo-3-chloro-2-fluorobenzyl)carbamoyl)-2-azabicyclo[2.2.1]heptan-2-yl)-2-oxoethyl)-1H-indazole-3-carboxamide]
Second: NC(=O)c1nn(CC(=O)N2[C@@H]3CC[C@@H](C3)[C@H]2C(=O)NCc2cc(Br)cc(Cl)c2F)c2ccccc12 [Example 109, 1-(2-((1R,3S,4S)-3-((5-bromo-3-chloro-2-fluorobenzyl)carbamoyl)-2-azabicyclo[2.2.1]heptan-2-yl)-2-oxoethyl)-1H-indazole-3-carboxamide]
The IC50 of the first is higher: 1000 to 10000 nM for the first, 100 to 1000 nM for the second. The second is the more potent here.

`COc1ccc2c(c1)c(C(C)=O)nn2CC(=O)N1[C@H](C(=O)Nc2cccc(Cl)n2)C[C@@H]2CCC[C@@H]21` [Example 175, (2S,3aS,6aS)-1-(2-(3-acetyl-5-methoxy-1H-indazol-1-yl)acetyl)-N-(6-chloropyridin-2-yl)octahydrocyclopenta[b]pyrrole-2-carboxamide] and `COc1ccc2c(c1)c(C(C)=O)nn2CC(=O)N1[C@@H]2CC[C@@H](C2)[C@H]1C(=O)Nc1cccc(Cl)n1` [Example 79, (1R,3S,4S)-2-(2-(3-acetyl-5-methoxy-1H-indazol-1-yl)acetyl)-N-(6-chloropyridin-2-yl)-2-azabicyclo[2.2.1]heptane-3-carboxamide] fall in the same range of IC50: 100 to 1000 nM for the first, 100 to 1000 nM for the second.

First: NC(=O)c1nn(CC(=O)N2[C@@H]3CC[C@@H](C3)[C@H]2C(=O)NCc2cccc(Cl)c2F)c2ccncc12 [Example 98, 1-(2-((1R,3S)-3-((3-chloro-2-fluorobenzyl)carbamoyl)-2-azabicyclo[2.2.1]heptan-2-yl)-2-oxoethyl)-1H-pyrazolo[4,3-c]pyridine-3-carboxamide]
Second: NC(=O)c1nn(CC(=O)N2[C@@H]3CC[C@@H](C3)[C@H]2C(=O)NCc2cccc(Cl)c2F)c2cnccc12 [Example 39, 1-(2-((1R,3S,4S)-3-((3-chloro-2-fluorobenzyl)carbamoyl)-2-azabicyclo[2.2.1]heptan-2-yl)-2-oxoethyl)-1H-pyrazolo[3,4-c]pyridine-3-carboxamide]
The IC50 of the first is higher: 1000 to 10000 nM for the first, 100 to 1000 nM for the second.

`NC(=O)c1nn(CC(=O)N2[C@@H]3CC[C@@H](C3)[C@H]2C(=O)Nc2cccc(C3CC3)n2)c2cc(C3CC3)ccc12` [Example 5, 6-cyclopropyl-1-(2-((1R,3S,4S)-3-((6-cyclopropylpyridin-2-yl)carbamoyl)-2-azabicyclo[2.2.1]heptan-2-yl)-2-oxoethyl)-1H-indazole-3-carboxamide] and `NC(=O)c1nn(CC(=O)N2[C@@H]3CC[C@@H](C3)[C@H]2C(=O)Nc2cccc(C3CC3)n2)c2cnccc12` [Example 4, 1-(2-((1R,3S,4S)-3-((6-cyclopropylpyridin-2-yl)carbamoyl)-2-azabicyclo[2.2.1]heptan-2-yl)-2-oxoethyl)-1H-pyrazolo[3,4-c]pyridine-3-carboxamide] fall in the same range of IC50: 1000 to 10000 nM for the first, 1000 to 10000 nM for the second.

`COC(=O)c1cc(Cl)nc(NC(=O)[C@@H]2[C@H]3CC[C@H](C3)N2C(=O)Cn2nc(C(N)=O)c3ccccc32)c1` [Example 103, methyl 2-((1R,3S,4S)-2-(2-(3-carbamoyl-1H-indazol-1-yl)acetyl)-2-azabicyclo[2.2.1]heptane-3-carboxamido)-6-chloroisonicotinate] and `NC(=O)c1nn(CC(=O)N2[C@@H]3CC[C@@H](C3)[C@H]2C(=O)Nc2ccc(Cl)c(Cl)n2)c2ccccc12` [Example 76, 1-(2-((1R,3S,4S)-3-((5,6-dichloropyridin-2-yl)carbamoyl)-2-azabicyclo[2.2.1]heptan-2-yl)-2-oxoethyl)-1H-indazole-3-carboxamide] fall in the same range of IC50: 100 to 1000 nM for the first, 100 to 1000 nM for the second.

`NC(=O)c1nn(CC(=O)N2[C@@H]3CC[C@@H](C3)[C@H]2C(=O)NCc2ccc(F)c(Cl)c2)c2ccccc12` [Example 63, 1-(2-((1R,3S,4S)-3-((3-chloro-4-fluorobenzyl)carbamoyl)-2-azabicyclo[2.2.1]heptan-2-yl)-2-oxoethyl)-1H-indazole-3-carboxamide 2,2,2-trifluoroacetate] and `NC(=O)c1nn(CC(=O)N2[C@@H]3CC[C@@H](C3)[C@H]2C(=O)NC(CCO)c2cccc(Cl)c2F)c2ccccc12` (stereo partly drawn) [Example 146, 1-(2-((1R,3S,4S)-3-((1-(3-chloro-2-fluorophenyl)-3-hydroxypropyl)carbamoyl)-2-azabicyclo[2.2.1]heptan-2-yl)-2-oxoethyl)-1H-indazole-3-carboxamide] fall in the same range of IC50: 1000 to 10000 nM for the first, 1000 to 10000 nM for the second.

First: NC(=O)c1nn(CC(=O)N2[C@H](C(=O)Nc3cccc(Cl)n3)C[C@@H]3CCC[C@@H]32)c2ccc([N+](=O)[O-])cc12 [Example 173, 1-(2-((2S,3aS,6aS)-2-((6-chloropyridin-2-yl)carbamoyl)hexahydrocyclopenta[b]pyrrol-1(2H)-yl)-2-oxoethyl)-5-nitro-1H-indazole-3-carboxamide]
Second: NC(=O)c1nn(CC(=O)N2[C@H](C(=O)Nc3cccc(Cl)n3)C[C@@H]3CCC[C@@H]32)c2cc(Cl)ccc12 [Example 182, 6-chloro-1-(2-((2S,3aS,6aS)-2-((6-chloropyridin-2-yl)carbamoyl)hexahydrocyclopenta[b]pyrrol-1(2H)-yl)-2-oxoethyl)-1H-indazole-3-carboxamide]
The IC50 of the first is higher: 1000 to 10000 nM for the first, 100 to 1000 nM for the second. The second is the more potent here.

First: NC(=O)c1nn(CC(=O)N2[C@@H]3CC[C@@H](C3)[C@H]2C(=O)NCc2cccc(Cl)c2F)c2cc(CC(=O)O)ccc12 [Example 127, 2-(3-carbamoyl-1-(2-((1R,3S,4S)-3-((3-chloro-2-fluorobenzyl)carbamoyl)-2-azabicyclo[2.2.1]heptan-2-yl)-2-oxoethyl)-1H-indazol-6-yl)acetic acid]
Second: NC(=O)c1nn(CC(=O)N2[C@@H]3CC[C@@H](C3)[C@H]2C(=O)Nc2cccc(Cl)n2)c2cnccc12 [Example 2, 1-(2-((1R,3S,4S)-3-((6-chloropyridin-2-yl)carbamoyl)-2-azabicyclo[2.2.1]heptan-2-yl)-2-oxoethyl)-1H-pyrazolo[3,4-c]pyridine-3-carboxamide]
The IC50 of the first is higher: 1000 to 10000 nM for the first, 100 to 1000 nM for the second. The second is the more potent here.

First: NC(=O)c1nn(CC(=O)N2[C@@H]3CC[C@@H](C3)[C@H]2C(=O)Nc2cccc(C(F)(F)F)n2)c2cnccc12 [Example 9, 1-(2-oxo-2-((1R,3S,4S)-3-((6-(trifluoromethyl)pyridin-2-yl)carbamoyl)-2-azabicyclo[2.2.1]heptan-2-yl)ethyl)-1H-pyrazolo[3,4-c]pyridine-3-carboxamide]
Second: NC(=O)Cc1nn(CC(=O)N2[C@@H]3CC[C@@H](C3)[C@H]2C(=O)Nc2cccc(Cl)n2)c2ccccc12 [Example 94, (1R,3S,4S)-2-(2-(3-(2-amino-2-oxoethyl)-1H-indazol-1-yl)acetyl)-N-(6-chloropyridin-2-yl)-2-azabicyclo[2.2.1]heptane-3-carboxamide]
The IC50 of the first is lower: 100 to 1000 nM for the first, 1000 to 10000 nM for the second.

First: O=C(Nc1cccc(Cl)n1)[C@@H]1[C@H]2CC[C@H](C2)N1C(=O)Cn1nc(C(=O)N2CCC2)c2ccccc21 [Example 86, (1R,3S,4S)-2-(2-(3-(azetidine-1-carbonyl)-1H-indazol-1-yl)acetyl)-N-(6-chloropyridin-2-yl)-2-azabicyclo[2.2.1]heptane-3-carboxamide]
Second: NC(=O)c1nn(CC(=O)N2CCCC[C@H]2C(=O)Nc2cccc(Br)n2)c2ccccc12 [Example 20, (S)-1-(2-(2-((6-bromopyridin-2-yl)carbamoyl)piperidin-1-yl)-2-oxoethyl)-1H-indazole-3-carboxamide]
The IC50 of the first is higher: over 10000 nM for the first, 100 to 1000 nM for the second.
